Test results taken from US20230381182A1, “Biomarkers Related to Immune Checkpoint Inhibitor Therapy and Methods of Using the Same” (Senda Biosciences, Inc., priority 2020, published 2023).

Assays:
CT26 cells = assay: Anti-tumor efficacy in CT26 mouse model unresponsive to anti-PD-L1 therapy; assay type: in vivo, Balb/c mice; conditions: Compound No. 30 10 mg/kg p.o. once a day over 14 days coadministered with anti-PD-L1 antibody 10 mg/kg i.p. every 3 days
Procedure: The anti-tumor efficacy of Compound No. 30 was studied in a CT26 mouse model which is unresponsive to anti-PD-L1 therapy only. CT26 cells were implanted subcutaneously into Balb/c mice which were then randomized and treated either with an […], an anti-PD-L1 antibody, or Compound No. 30 of Table 2 in combination with the anti-PD-L1 antibody. Compound No. 30 was dosed 10 mg/kg, p.o. once a day over 14 days and the anti-PD-L1 antibody was dosed at 10 mg/kg i.p. every 3 days.

AhR = target: T1, AhR (Homo sapiens, UniProt P35869); assay: DRE-Luciferase reporter assay (HepG2-Luc); assay type: cell-based; conditions: Human HepG2 liver carcinoma AhR-Lucia reporter cells; inhibition of luciferase activity induced by AhR activating ligand at its EC50
T1 construct: endogenous in cells; host or cells: Human HepG2 liver carcinoma AhR-Lucia reporter cells (DRE-luciferase reporter stably transfected)
T1 sequence (P35869 11-848): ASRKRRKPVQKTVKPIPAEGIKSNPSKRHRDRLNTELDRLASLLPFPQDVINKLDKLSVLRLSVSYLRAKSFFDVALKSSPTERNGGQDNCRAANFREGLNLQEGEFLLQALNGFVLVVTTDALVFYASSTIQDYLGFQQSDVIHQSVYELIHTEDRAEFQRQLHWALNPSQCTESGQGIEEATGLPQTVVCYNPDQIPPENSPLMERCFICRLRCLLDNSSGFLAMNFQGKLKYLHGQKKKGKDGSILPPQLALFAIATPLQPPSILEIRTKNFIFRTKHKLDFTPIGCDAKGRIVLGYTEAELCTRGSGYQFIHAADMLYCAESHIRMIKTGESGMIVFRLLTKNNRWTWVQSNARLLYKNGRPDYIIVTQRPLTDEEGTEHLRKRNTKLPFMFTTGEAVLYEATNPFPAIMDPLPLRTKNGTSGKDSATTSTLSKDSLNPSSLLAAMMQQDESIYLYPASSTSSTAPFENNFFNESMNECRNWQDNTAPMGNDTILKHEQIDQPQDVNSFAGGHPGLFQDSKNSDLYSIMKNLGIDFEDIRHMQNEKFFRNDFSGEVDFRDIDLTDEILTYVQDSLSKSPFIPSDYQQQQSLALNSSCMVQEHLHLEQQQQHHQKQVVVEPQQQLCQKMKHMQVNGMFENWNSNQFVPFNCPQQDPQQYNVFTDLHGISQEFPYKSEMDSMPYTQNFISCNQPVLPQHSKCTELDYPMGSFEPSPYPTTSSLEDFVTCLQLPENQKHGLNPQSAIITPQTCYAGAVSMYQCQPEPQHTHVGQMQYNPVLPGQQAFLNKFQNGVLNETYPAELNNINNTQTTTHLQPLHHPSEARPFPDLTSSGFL
Source text: AhR binds to dioxin responsive elements (DRE) upstream of the genes that it activates. One measure of AhR activity is activation of a reporter gene, such as luciferase, downstream of one or multiple DRE elements. Luciferase activity reflects activation and inhibition of AhR in the cells expressing this reporter. 20000 Human HepG2 liver carcinoma—AhR-Lucia reporter cells or Human HT29 colon adenocarcinoma-AhR reporter cells or other cell lines with a DRE-luciferase reporter stably transfected were plated in Eagle's Minimal Essential Medium, 10% heat-inactivated FBS, 1× non-essential amino acids Pen-Strep (10,000 U/mL) and Normocin (100 ug/mL) in plates (96-well, 384-well or other plates) and incubated overnight at 37° C. in a CO2 incubator and treated with and without AhR antagonists at a log dilution starting at 100 μM. […]
Cells were incubated for 24 or 48 hours or another time point and the supernatant was analyzed for determination of luciferase activity as a read-out of the AhR activation or inhibition. Luciferase was measured with the commercial kit QUANTI-Luc™ assay solution kit from InvivoGen following the manufacturer's instructions.
The level of luciferase with only agonist ligand added was the maximum signal while the luciferase with […] was the minimum signal. IC50 values were determined as the concentration which inhibits half of the luciferase activity.

Row | IC50 (AhR) | SMILES | tumor volume (tumor growth curves) (CT26 cells; p=0.039, Mann-Whitney, FIG. 4A) | tumor weight (CT26 cells; p=0.067, Mann-Whitney, FIG. 4B)
1 |  | C[C@H](n1cnc2c(-c3cnn(C)c3)nc(-c3ccc(Cl)cc3)cc2c1=O)C(C)(C)O [Compound No. 30, (S)-6-(4-chlorophenyl)-3-(3-hydroxy-3-methylbutan-2-yl)-8-(1-methyl-1H-pyrazol-4-yl)pyrido[3,4-d]pyrimidin-4(3H)-one] | reduction in tumor volume | reduction in tumor weight
2 | < 100 nM | O=c1c2cc(-c3ccc(OC(F)(F)F)cc3)nc(-c3cccnc3)c2ncn1C[C@@H](O)C(F)(F)F [compound 123, (R)-8-(pyridin-3-yl)-3-(3,3,3-trifluoro-2-hydroxypropyl)-6-(4-(trifluoromethoxy)phenyl)pyrido[3,4-d]pyrimidin-4(3H)-one] |  | 
